Entries after “also recorded” stand apart in the source; their conditions may differ.
Legend:
goblet cells = assay: IL-13 induced goblet cell hyperplasia in Airway-on-Chip (MUC5AC staining); format: cell-based, human
Description: As an exemplary immuno-modulatory compound, addition of IL-13 to an Airway-on-Chip induced changes in epithelial cell layers in the upper channel with an air interface and endothelial cells in the lower channel under media fluid flow conditions are shown. It was discovered that IL-13 added to this embodiment of Airway-on-Chip effects both the epithelial cell layer in the upper channel with an air interface and the endothelial cells in the lower channel under media flow conditions. FIG. 9A is a schematic illustration showing IL-13 in the context of an Airway-on-Chip, where IL-13 effects both epithelial cells in the upper channel with an air interface and endothelial cells in the lower channel under flow (left). […] IL-13 is added to the endothelial channel at an exemplary 100 ng/ml for an exemplary 7 days.
This hyperplasia effect can be inhibited by Tofacitinib, an inhibitor of the JAK/STAT pathway (Janus Kinase (JAK) and Signal Transducer and Activator of Transcription (STAT)).
Creation of a Th2 microenvironment through IL-13 stimulation induces an asthma-like phenotype in the Airway Chip. Exacerbation is then triggered by infecting with human rhinovirus 16. […]

[1] = tested on: host cells of Airway On-Chip; assay: TUNEL apoptosis staining on Airway On-Chip; format: cell-based, human; details: 3 μM for 3 h at 37° C.; positive control
Description: One embodiment of an Airway On-Chip was infected as described above for 2 hours and then treated 50 μg/ml tetracycline for 24 h (top and bottom channels under flow) for 24 h in order to limit bacterial replication (to avoid over-replication and cell lifting). Using this methodology, we performed longer infections on an airway chip and avoided cell death at 24 h. At 24 h, chips were fixed with 4% paraformaldehyde for 15 minutes and subsequently permeabilized with 0.25% triton in PBS. Apoptosis staining was performed following the Click-iT™ Plus TUNEL Assay for In Situ Apoptosis Detection, Alexa Fluor 647 assay: Click-iT™ Plus TUNEL Assay, Thermo Fisher Scientific Inc., 6 Nov. 2017.
The TUNEL assay is based on the incorporation of modified dUTPs by the enzyme terminal deoxynucleotidyl transferase (TdT) at the 3′-OH ends of fragmented DNA, a hallmark as well as the ultimate determinate of apoptosis. ClickiT™ Plus TUNEL assay with the Alexa Fluor™ 647 dye was utilized to detect the fragment DNA (purple), nuclei were labelled with DAPI.
Staurosporin, a prototypical ATP-competitive kinase inhibitor, was used as a positive control in this assay. […] As an additional positive control, chips were treated with 1 unit of DNAse I for 30 minutes at room temperature to induce TUNEL positive DNA strand breaks.

human neutrophil [2] = assay: Neutrophil recruitment/attachment in Airway-on-Chip model of acute asthma exacerbation (HRV-16 infection, IL-13 stimulation); format: cell-based
Description: In this embodiment, an exemplary respiratory virus, e.g., Rhinovirus, was added to the upper channel of the chip, IL-13 was used to stimulate cells, and neutrophils were added to the lower channel, see, FIG. 14A.
See, FIG. 14B and FIG. 14C.
HRV-16 is represented as small green dots in the upper channel while neutrophil cells (also described as polymorphonuclear leukocytes (PMN)) are represented as large purple spots in the lower channel. […] Treatments included HRV-16 alone infected cells, IL-13 alone treated cells, HRV-16 and (+) IL-13 treated cells, HRV-16+CXCR2in (inhibitor) treated cells, and HRV-16+IL-13+CXCR2in. […] FIG. 14C is a graphical comparison showing PMN (neutrophil) cells counts as % of untreated cells and cells treated with combinations shown for IL-13, HRV, and CXCR2 (in) treatments. Quantification of neutrophil recruitment (** p<0.01; **** p<0.001).

human neutrophil [3] = assay: Neutrophil adhesion, crawling and trans-migration out of the endothelial channel, HRV-16 infected Airway-on-Chip; format: cell-based; details: HRV-16 24 hpi
Description: Once recruited to the endothelium, neutrophil movement can be recorded and extravasation monitored as N (number) of spots vs. time (e.g. up to 300-600 seconds).
Thus, migratory cell potential, as extravasation, is identified in graphs below each of these micrographs, FIG. 15A and FIG. 15B, showing the number of white spots (N spots) counted over time for each treatment. For HRV-16 infection alone, the number of spots decreases as the cells move into the cell layer, see, FIG. 15C. […] Extravasation in general refers to the movement of white blood cells into the tissues surrounding them (e.g. leukocyte extravasation), also known as diapedesis.

HRV-16 = HRV-16 one step growth curves in infected Airway chips treated with IL-13 or not; format: cell-based, human rhinovirus 16; details: HRV-16 MOI=2
Description: An exemplary virus, Human rhinovirus 16 (HRV16: A16 or type 16, referring to a single stranded RNA virus), in capsid form, was added at a multiplicity of infection of 2 to the upper channel and incubated at 33° C. for 3 hours. Infected chips (n=3) were washed apically (upper channel) daily and replicating virus in the wash fluid was quantified. HRV16 Titer (Log 10 TCID 50/mL) vs time post infection (hours). TCID50 refers to a tissue culture infectious dose, which will infect 50% if the cells in a monolayer challenged with the viral inoculum.

[4] = tested on: IFN-λ1, IP-10/CXCL10, IL-6 secretion; assay: Interferon, chemokine and cytokine secretion after HRV16 infection of Airway Chips; format: cell-based, human
Description: HRV-16-induced interferons, chemokines and pro-inflammatory cytokines profile is altered by IL-13 treatment in the severe asthma chip as shown by high resolution, kinetic profiles of cytokine secretion. These graphs (FIG. 17A-C) show results using a method for identifying secretory phases (i.e. I, II, III, and IV) of essential inflammatory cytokines.
FIG. 17A-C HRV-16-induced interferons, chemokines and pro-inflammatory cytokines profile is altered by IL-13 treatment in one embodiment of a severe asthma on-chip. These exemplary graphs show results from high resolution, kinetic profiles of an IFN Lambda 1 response FIG. 17A; IP-10/CXCL10 FIG. 17B; IL-6 response FIG. 17C; following HRV16 infection. A severe asthma on-chip was stimulated with IL-13 (lower red line and squares) while a duplicate chip was not stimulated with IL-13 (upper blue line and circles). IL-13 treatment was over 72 hours post infection. Data represent mean±SEM of cells from three to four different donors, with one or two biological replicates (chips) per donor.
Charts show IFN-λ1 (pg/mL) and IP-10/CXCL10 (pg/mL) measured in apical and basal secretions collected at 24, 48 and 72 h post HRV16 infection comparing control, IL-13 alone, HRV-16 alone and combined treatments.
Thus, IL-13 may delay or prevent IL-6-driven resolution of HRV-induced inflammation. Charts (i.e. readouts) show IL-6 (pg/mL) and IL-8 (pg/mL) measured in apical and basal secretions collected at 24, 48 and 72 h post HRV16 infection comparing control, IL-13 alone, HRV-16 alone and combined treatments.

Human Airway Epithelium = assay: Cilia beating frequency on-chip; format: cell-based; details: IL-13 stimulation
endothelial cells = assay: IL-13 effects on endothelial cells of Airway-on-Chip (adhesion molecule gene and protein expression); format: cell-based, human
Description: Induced gene expression for adhesion molecules was also observed after IL-13 treatment, FIG. 9C. Examples of IL-13 induced Selectins (P and E) and ICAM-1 (Intercellular Adhesion Molecule 1) and VCAM-1 (vascular cell adhesion molecule-1). Doerr, “The condition-dependent proteome.” Nat Methods. 2016 Febuary; 13(2):117.
Other compounds tested included Interleukin alpha (IL1A), Interleukin beta (IL1B), Interleukin-6 (IL6), Interleukin-8 (IL8), The chemokine (C-C motif) ligand 2 (CCL2), C-C Motif Chemokine Receptor 4 (CCR4), Protein Tyrosine Phosphatase, Receptor Type C (PTPRC), Intercellular Adhesion Molecule 1 (ICAM1), Selectin P (SELP), Selectin E (SELE), Prostaglandin-Endoperoxide Synthase 2 (PTGS2), Transforming Growth Factor Beta 1 (TGFB1), SMAD Family Member 7 (SMAD7), Complement C3 (C3), Angiotensin I Converting Enzyme (ACE), cluster of differentiation 34: CD34 antigen: CD34 molecule (CD34) and Nuclear Factor Of Activated T-Cells 4 (NFATC4).
In one embodiment, an asthma phenotype was generated using IL-13 stimulation. This stimulation led to the activation of human endothelium at 48 hours of treatment. IL-13 induces vessel (endothelial cell) wall priming as part of recruitment of immune cells. […] IL-13 100 ng/mL (right panels) vs. no treatment controls (left panels) VE-Cadherin (red), ICAM-1 (green) in the upper panels. VCAM-1 (red) VE-Cadherin (green). […]

P. aeruginosa = format: cell-based, Pseudomonas aeruginosa; details: lower concentrations
Description: Mature small airway chips at air-liquid interface (ALI) were gently washed with PBS to remove excess mucus. Cells were inoculated with 2-3×10^6 colony forming units (CFUs) in Hank's balanced salt solution (HBSS) for 2 hours. At the end of the incubation, the inoculum was removed and the cells were washed 3× with phosphate buffer saline (PBS) to remove any nonadherent bacteria. PBS was removed and cells were incubated at ALI up to 24 hours (h) under flow in the bottom channel but not in the top channel.
After an exemplary on-chip infection protocol, including removing nonadherent bacteria, a test compound was immediately added to the top (apical) and bottom (basal) channels then cells are cultured under flow using media containing the anti-microbial compound, for 24 hours. Exemplary test compound amounts are at least 0.1 μg/ml, up to 50 μg/ml, up to 100 μg/ml, up to 500 μg/ml. In one embodiment, an exemplary test compound is a drug Imipenem.
More specifically, in one embodiment of an Airway on-chip, duplicate chips were infected with PA 5919 WT or PA 5890 Mutant as described herein. Then, Imipenem was added to apical and basolateral fluids (cell media) for treatment with Imipenem at 50, 100 and 500 μg/ml for 24 hours with at least one chip without Imipenem. […] Lysates were serially diluted for CFU quantification. […]
Assay readouts: Viability of extracellular bacteria (apical sampling). […]

C[C@@H]1CCN(C(=O)CC#N)C[C@@H]1N(C)c1ncnc2[nH]ccc12 [Tofacitinib]
effect on IL-13 induced goblet cell hyperplasia (goblet cells; IL-13+Tofacitinib): inhibited

CN[C@@H]1C[C@H]2O[C@@](C)([C@@H]1OC)n1c3ccccc3c3c4c(c5c6ccccc6n2c5c31)C(=O)NC4 [Staurosporin]
apoptotic cell numbers (TUNEL) [1]: increased apoptotic cell numbers

CC[C@@H](Nc1c(Nc2cccc(C(=O)N(C)C)c2O)c(=O)c1=O)c1ccc(C)o1 [MK-7123]
inhibition of relevant physiological responses (neutrophil recruitment) (human neutrophil [2]; CXCR2 antagonist 10 μM): greater than 90% | neutrophil attachment in the lower channel (human neutrophil [2]; HRV-16 infections, with or without IL-13 stimulation): reduced neutrophil attachment | neutrophil recruitment (human neutrophil [2]; MK-7123 10 microM, three stimulation conditions (HRV-16, IL-13, IL-13+HRV)): inhibits neutrophil recruitment; also recorded: significantly reduced neutrophil recruitment | neutrophil attachment in the lower channel (human neutrophil [2]; cells stimulated with IL-13 alone): increased attachment | adhesion of neutrophil cells on endothelial cell surfaces (human neutrophil [3]; 10 microliters of CXCR2 inhibitor added to the lower channel, vs no treatment): reduced adhesion of neutrophil cells | number of spots (neutrophil cells, N spots) counted over time (extravasation) (human neutrophil [3]; up to 600 seconds): remains about the same | neutrophil mobility (crawling) and trans-migration (human neutrophil [3]; severe asthma chip, 10 μM): reduces neutrophil mobility and limits trans-migration

IL-13: TH2 cytokine used to stimulate an asthma-like phenotype on-chip
neutrophil recruitment (human neutrophil [2]; IL-13+HRV vs either alone): additive increase in neutrophil recruitment | neutrophil recruitment (human neutrophil [2]; IL-13-treated chips vs non-stimulated chips): increased neutrophil recruitment | HRV infectivity (HRV-16 growth) (HRV-16): does not alter HRV infectivity | goblet cell hyperplasia (goblet cells; IL-13 100 ng/ml, 7 days, endothelial channel): induced goblet cell hyperplasia | epithelial interferon response after HRV-16 infection ([4]; apical/basal secretions, 24-72 h post infection): impairs epithelial interferon response; also recorded: reduces HRV16-induced interferon response | kinetic profile of IFN Lambda 1, CXCL10 and IL-6 secretion ([4]; over 3 days (72 hours) post HRV16 infection): inhibits secretion of IFN Lambda 1, CXCL10 and IL-6 | HRV16-induced IL-6 secretion ([4]; prior stimulation with IL-13, 24, 48, 72 h post infection): inhibited | cilia beating frequency (Human Airway Epithelium): reduces cilia beating frequency | adhesion molecule (ICAM-1, VCAM-1, VE-Cadherin) protein expression, immunostaining (endothelial cells; IL-13 100 ng/mL, 48 hours): increased adhesion molecule expression | adhesion protein gene expression in endothelial cells (fold over non-treated) (endothelial cells; IL-13 treatment): up regulates adhesion proteins

C[C@@H](O)[C@H]1C(=O)N2C(C(=O)O)=C(SCCN=CN)C[C@H]12 [Imipenem]
permeability of airway cells to imipenem (P. aeruginosa): impermeable

Reference: US11542476B2, “Advanced pulmonary models” (EMULATE, INC., priority 2017, dated 2023)
